Data: ChEMBL document CHEMBL1201862, “PubChem BioAssay data set” (2004)
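Method: 48-hour compound exposure of cells in 96-well plates, five concentrations, linear interpolation of endpoints. At the GI50, growth is halved.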 Activity calls are given as the source filed them. No stated cut-off is given here; in the data, active = GI50 up to about 1.1 µM and inactive = higher.

Assays:
Experiment in all cases: DTP human tumour cell line panel, 48 h
[1] = system: MDA-N
[2] = system: CCRF-CEM
[3] = system: MCF7
[4] = system: NCI-H23
[5] = system: MOLT-4
[6] = system: SNB-19
[7] = system: HT-29
[8] = system: OVCAR-3
[9] = system: SN12C
[10] = system: NCI-H226
[11] = system: SR
[12] = system: LOX IMVI
[13] = system: NCI-H460
[14] = system: HOP-92
[15] = system: HCT-116
[16] = system: MDA-MB-231
[17] = system: UACC-257
[18] = system: TK-10
[19] = system: SK-MEL-2

Measured: GI50

C[C@H]1CC[C@@]2(NC1)O[C@H]1C[C@H]3[C@@H]4CC[C@H]5C[C@@H](O)CC[C@]5(C)[C@H]4CC[C@]3(C)[C@H]1[C@@H]2C
inactive: [1] > 100 µM | [2] > 100 µM | [3] > 100 µM | [4] 85.5 µM | [5] > 100 µM | [6] > 100 µM | [7] 47.9 µM | [8] 54.2 µM | [9] > 100 µM | [10] > 100 µM | [11] 22.9 µM | [12] 45.3 µM | [13] 33.4 µM | [14] 52.6 µM | [15] 54.8 µM | [16] 32.2 µM | [17] > 100 µM | [18] > 100 µM | [19] > 100 µM

COc1ccc(/C(C)=N/OC(=O)c2c(-c3ccccc3Cl)noc2C)cc1CN1CCOCC1
inactive: [1] 18.8 µM | [2] 66.7 µM | [3] 20.8 µM | [4] 32.6 µM | [5] 24 µM | [6] 16.2 µM | [7] 18.3 µM | [8] 21.7 µM | [9] 18.7 µM | [10] 88.1 µM | [11] 25 µM | [12] 14.9 µM | [13] 29 µM | [14] 24.2 µM | [15] 18.2 µM | [16] 20 µM | [17] 17.9 µM | [18] 43.1 µM | [19] 16.4 µM

O=C1N/C(=N\N=C\c2ccccc2)C(c2ccccc2)O1 (stereo unspecified)
inactive: [1] > 100 µM | [2] 12.7 µM | [3] 68.4 µM | [4] > 100 µM | [5] 25.5 µM | [6] > 100 µM | [7] 53 µM | [8] 27.4 µM | [9] 71.1 µM | [10] 30.9 µM | [11] 23.6 µM | [12] 42.8 µM | [13] 38.4 µM | [14] > 100 µM | [15] 37.3 µM | [16] 88.5 µM | [17] 66.1 µM | [18] 24 µM | [19] > 100 µM

O=C(O)c1cccc(S(=O)(=O)NCCO)c1
inactive: [1] > 100 µM | [2] > 100 µM | [3] > 100 µM | [4] > 100 µM | [5] > 100 µM | [6] > 100 µM | [7] > 100 µM | [8] > 100 µM | [9] > 100 µM | [10] > 100 µM | [11] > 100 µM | [12] > 100 µM | [13] > 100 µM | [14] > 100 µM | [15] > 100 µM | [16] > 100 µM | [17] > 100 µM | [18] > 100 µM | [19] > 100 µM
